# Test results: PubChem BioAssay AID464 (The Scripps Research Institute Molecular Screening Center, 2006)
# Activity calls are given as the source filed them.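 Rule for the calls: active = Compounds that kill half the cells at a concentration of 5 micromolar or below, from the fitted or estimated CC50; inactive = CC50 above 5 micromolar.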
# Test system: Jurkat E6.1 viability, ATP luminescence, 48 h
# Experiment: Jurkat E6.1 cell cytotoxicity, CC50 determination, dose response, cytotoxicity control, ATP luminescence, 48 h, 60K MLSMR (AID 464)
row,Structure (SMILES),CC50
1,CN(Cc1ccccc1)S(=O)(=O)c1ccc(C(=O)Nc2nnc(C3CC3)o2)cc1,26 µM (inactive)
2,Cc1cc(NC(=O)CSc2nc(-c3cccs3)cc(C(F)(F)F)n2)no1,0.264 µM
3,CCOc1cc(C#N)c(NC(=O)c2ccco2)cc1OCC,4.31 µM
4,CCOC(=O)CS(=O)(=O)c1nc(-c2ccccc2)cc(C(F)(F)F)n1,3.42 µM
5,O=C(Nc1nc(-c2ccccn2)cs1)c1ccc(S(=O)(=O)N2CCCCC2)cc1,8.99 µM (inactive)
6,C=CCOC(=O)c1[nH]c2c(c1C)C(=O)CC(c1ccco1)C2 (centres undefined),0.196 µM
7,O=C(Cc1n[nH]c(=O)c2ccccc12)OCC(=O)c1ccc2c(c1)OCCO2,3.4 µM
8,CCCn1c(NC(=O)c2cccc(S(=O)(=O)N3CCCC3)c2)nc2ccccc21,> 40 µM (inactive)
9,COC(=O)c1ccccc1NC(=O)Cn1c(-c2nonc2N)nc2ccccc21,0.245 µM
10,COc1ccc(C2CC(c3c(O)cc(C)oc3=O)=NCCS2)c(OC)c1 (centres undefined),0.318 µM
11,CCCN1C(=O)c2ccccc2NC1c1ccc(OC)cc1O (centres undefined),> 40 µM (inactive)
12,CCOC(=O)CSC1=C(C#N)C(c2sccc2C)CC(=O)N1 (centres undefined),1.91 µM
13,COc1ccc(C2=Nn3c(nnc3-c3ccc(OC)cc3)SC2)cc1,0.325 µM
14,O=C(CCc1ccccc1)Nc1ccc(Cl)cn1,2.15 µM
15,O=C(CCn1c(=O)oc2ccccc21)N1CCN(c2ccccc2Cl)CC1,5.77 µM (inactive)
16,CCn1ncc(C2=NOC(C(=O)NCc3ccccc3)C2)c1C (centres undefined),1.09 µM
17,CCCCn1c(CN2CCN(c3ccccc3)CC2)nc2c1c(=O)n(C)c(=O)n2C,10.4 µM (inactive)
18,COCCCN1C(=O)c2[nH]nc(-c3ccccc3O)c2C1c1cccc(Cl)c1 (centres undefined),3.39 µM
19,Cc1oc(-c2ccc(Cl)cc2)nc1CN1CCCC(C(=O)N2CCN(C(=O)c3ccco3)CC2)C1 (centres undefined),2.07 µM
20,Cn1c(C(=O)NCc2cccs2)cc2oc3ccccc3c21,> 40 µM (inactive)
21,Cc1ccc2[nH]c3c(NCc4ccco4)ncnc3c2c1,18.7 µM (inactive)
22,O=C(c1ccc(F)cc1)C(CN1CCOCC1)c1ccccc1 (centres undefined),5.53 µM (inactive)

row,Structure (SMILES),CC50
1,CCCCn1c(CN2CCN(c3cccc(Cl)c3)CC2)nc2c1c(=O)[nH]c(=O)n2C,2.84 µM
2,COc1ccc(NC(=O)c2cc(-c3ccccc3OC)on2)cc1,1.85 µM
3,Cc1nc2ccccc2n1CC(=O)NCc1ccccc1,5.34 µM (inactive)
4,c1ccc(CNc2ncnc3c2cnn3-c2ccccc2)cc1,3.54 µM
5,Cc1cc(C)cc(NC2=NC3(CCCCC3)N=C(N)N2)c1,4.97 µM
6,CCn1c(C)nc2cc(-c3nc4n(n3)Cc3ccccc3-4)ccc21,2.57 µM
7,O=C(NCc1cccs1)C1CCN(c2ccc(S(=O)(=O)N3CCOCC3)cc2Cl)CC1,0.875 µM
8,CCn1ncc(C2=NOC(C(=O)NCc3ccc(OC)cc3)C2)c1C (centres undefined),11.8 µM (inactive)
9,COC(=O)c1[nH]c2c(c1C)C(=O)CC(c1cccs1)C2 (centres undefined),0.677 µM
10,CCN1CCN(S(=O)(=O)c2cc(OCC(=O)NC3CCCCC3)c(C)cc2Cl)CC1,3.3 µM
11,Cc1cc(NC(=O)CCCS(=O)(=O)c2nc(-c3cccs3)cc(C(F)(F)F)n2)no1,2 µM
12,CSc1nnc2c3ccccc3n(CCc3ccccc3)c2n1,16.9 µM (inactive)
13,Cc1c(C(=O)OCC2CCCO2)[nH]c2c1C(=O)CC(c1ccco1)C2 (centres undefined),2.6 µM
14,COc1cccc(OCc2nc3ncc(Br)cc3[nH]2)c1,1.11 µM
15,CCOC(=O)c1c(C)c(C(=O)Nc2cc(F)ccc2F)c(C)n1C,6.52 µM (inactive)
16,Cc1noc(C)c1CSc1nc2ccccc2c(=O)n1-c1ccc(F)cc1F,> 4.4 µM (inactive)
17,Cc1cnc(C(=O)Nc2cccc3cccnc23)cn1,0.803 µM
18,COc1cc(NC(=O)c2cc(-c3cccs3)on2)cc(OC)c1OC,12.8 µM (inactive)
19,CC(=O)N1c2ccccc2N(Cc2ccc(C)cc2C)C(=O)C1(C)C,2.22 µM
20,Clc1ccc(-n2nnnc2Sc2ncnc3sccc23)cc1,> 13 µM (inactive)
21,CS(=O)(=O)N1CCc2cc(-c3csc(NC(=O)Cc4cccs4)n3)ccc21,19.1 µM (inactive)
22,O=C(NCCN1CCOCC1)NC1(C(F)(F)F)Oc2ccc(Cl)cc2O1 (centres undefined),8.23 µM (inactive)

row,Structure (SMILES),CC50
1,COc1cc(NS(=O)(=O)c2ccc(NC(C)=O)cc2)cc(OC)c1,14.8 µM (inactive)
2,O=C(Nc1ccc(N2CCCC2)cc1)c1cccc(F)c1,8.17 µM (inactive)
3,CCn1c(=O)c(C(=O)Nc2nc3ccccc3[nH]2)c(O)c2ccccc21,14.3 µM (inactive)
4,COc1cc(C(=O)N2CCN(c3cc(Cl)ccc3Cl)CC2)cc(OC)c1OC,0.134 µM
5,CCN(Cc1ccccc1)S(=O)(=O)c1ccc(C(=O)Nc2nnc(C3CC3)o2)cc1,32.5 µM (inactive)
6,O=C(NCc1cccs1)c1nc2c(nnn2Cc2ccccc2Cl)c(=O)[nH]1,14.8 µM (inactive)
7,O=S1(=O)Nc2c(ccc3cccnc23)-c2ccccc21,4.74 µM
8,COc1ccc(OC)c(NS(=O)(=O)c2ccc(SC)cc2)c1,3.29 µM
9,CCOC(=O)CSC1=C(C#N)C(c2ccc(C)o2)CC(=O)N1 (centres undefined),0.535 µM
10,O=C(CCCc1nc(-c2ccc(Cl)cc2)no1)Nc1cccnc1,5.56 µM (inactive)
11,COC(=O)c1ccc(Oc2cc(C)nc(-n3nc(C)cc3C)n2)cc1,0.112 µM
12,O=C1N/C(=C\c2ccccc2)c2ccccc21,> 4.4 µM (inactive)
13,CCc1ccc2nc(NC(=O)c3cc(C)on3)sc2c1,3.71 µM
14,Cc1cccc(Cn2c(NCCO)nc3c2c(=O)n(C)c(=O)n3C)c1,2.32 µM
15,Oc1cccc2ccc(Nc3ccccn3)nc12,1.97 µM
16,COc1ccc(C2=NOC(C(=O)NCc3ccccc3)C2)cc1 (centres undefined),3.26 µM
17,COc1ccc(C2=Nn3c(nnc3-c3ccccc3OC)SC2)cc1OC,0.116 µM
18,CCOc1cc(C#N)c(NC(=O)c2cccnc2)cc1OCC,1.51 µM
19,COC(=O)c1ccc(Cl)c(NS(=O)(=O)c2ccc3c(c2)OCCO3)c1,4.81 µM
20,Cc1c(C(=O)OC2CCCC2)[nH]c2c1C(=O)CC(c1ccco1)C2 (centres undefined),0.167 µM
21,COc1ccccc1NC(=O)N(Cc1ccco1)Cc1cc2ccc(C)c(C)c2[nH]c1=O,1.81 µM
22,COc1cccc(CNC(=O)c2cc3oc4ccccc4c3n2C)c1OC,> 40 µM (inactive)

row,Structure (SMILES),CC50
1,Cc1ccc(S(=O)(=O)NCc2ccncc2)cc1,2.87 µM
2,CC(=O)C(C(C)=O)c1c(Cl)c(O)c(O)c2c(C(=O)c3ccccc3)coc12,8.76 µM (inactive)
3,CN(C)c1nc(N)nc(CSc2nnnn2-c2cccc3ccccc23)n1,6.97 µM (inactive)
4,COc1ccc(Cl)cc1S(=O)(=O)n1cnc2ccccc21,> 40 µM (inactive)
5,CN(C)c1ccc(C(=O)c2ccc(N(C)C)c(N)c2)cc1N,8.53 µM (inactive)
6,N#Cc1c(NC(=O)CSc2nc(N)cc(=O)[nH]2)sc2c1CCCCCC2,6.25 µM (inactive)
7,O=C(Nc1ccn(-c2ccccc2)n1)c1ccc(S(=O)(=O)N2CCCCCC2)cc1,19.8 µM (inactive)
8,O=C(Nc1nc(-c2nc3ccccc3s2)cs1)c1ccc(S(=O)(=O)N2CCOCC2)cc1,> 40 µM (inactive)
9,COc1ccccc1-c1nnc2sc(-c3cc4ccccc4o3)nn12,0.214 µM
10,Cc1cc(NC(=O)CSc2nnc3c(C)cc4c(C)ccc(C)c4n23)no1,3.83 µM
11,Cc1ccc(C2c3c(-c4ccccc4O)n[nH]c3C(=O)N2Cc2ccncc2)cc1 (centres undefined),6.79 µM (inactive)
12,Cc1nc2sccn2c1-c1csc(NCc2ccccc2)n1,4.81 µM
13,CC1=C(C(=O)OCc2ccc3c(c2)OCO3)C(c2ccccc2)NC(=O)N1 (centres undefined),17.3 µM (inactive)
14,CCSc1nnc(NC(=O)c2ccccn2)s1,8.3 µM (inactive)
15,Clc1ccc(CCNc2ncnc3nc[nH]c23)cc1,19.6 µM (inactive)
16,CCN(CC)S(=O)(=O)c1cc(C(=O)Nc2ccncc2)ccc1Cl,8.55 µM (inactive)
17,CCC(C)Oc1ccccc1C1CC(=O)NC2=C1C(=O)CCC2 (centres undefined),4.73 µM
18,O=C(c1cccc(C(=O)N2CCN(c3ccc(F)cc3)CC2)c1)N1CCN(c2ccc(F)cc2)CC1,> 40 µM (inactive)
19,Cc1ccc(-n2c(O)c(C=Nc3ccccc3N)c(=O)[nH]c2=O)cc1C,> 13 µM (inactive)
20,CCCN1CCN(c2ncnc3c2nnn3Cc2ccccc2)CC1,9.22 µM (inactive)
21,CN1Cc2cc(C(=O)c3cc(Cl)cc(CSc4ncccn4)c3O)cnc2NC1=O,0.212 µM
22,CCc1c(C)nc2ncnn2c1NCCc1ccc(OC)cc1,0.901 µM

row,Structure (SMILES),CC50
1,CCOC(=O)Nc1ccc2c(c1)N(C(=O)OC)c1ccccc1CC2,> 4.4 µM (inactive)
2,COc1cc(CN2CCN(c3cccc(Cl)c3)CC2)cc(OC)c1OC,4.36 µM
3,COc1cc(C)c(C(C)C)cc1S(=O)(=O)n1cnc(C)c1,7.61 µM (inactive)
4,Cc1ccc(OCCN2CCN(C(=O)CCC(=O)Nc3nnc(C(C)C)s3)CC2)cc1,5.08 µM (inactive)
5,O=C(CSc1nnnn1C1CC2CCC1C2)Nc1ccnc2ccccc12 (centres undefined),0.092 µM
6,Cc1cc(NC(=O)CSc2nc(-c3ccco3)cc(C(F)(F)F)n2)no1,0.233 µM
7,COc1ccc(C(=O)CSc2nnc(Cn3cnc4ccccc43)o2)cc1,2.6 µM
8,C=CCn1c(O)c(C(C)=NCc2cc(OC)cc(OC)c2)c(=O)[nH]c1=O,7.66 µM (inactive)
9,Oc1c(CN2CCCCC2)cc(Br)c2cccnc12,3.79 µM
10,N#CCCn1cc(/C=N/O)c(-c2ccc(-c3ccccc3)cc2)n1,11.6 µM (inactive)
11,O=C(NCc1cccc(F)c1)c1noc2c1CCCC2,8.73 µM (inactive)
12,CSCCOC(=O)c1[nH]c2c(c1C)C(=O)CC(c1ccco1)C2 (centres undefined),1.67 µM
13,COc1ccc(-n2nnnc2-c2cccc(OC)c2)cc1,0.195 µM
14,COc1cc(C2=NOC(C(=O)NCc3ccc(F)cc3)C2)cc(OC)c1OC (centres undefined),0.347 µM
15,Cn1c(=O)c2c(nc(NCc3ccco3)n2C/C=C/c2ccccc2)n(C)c1=O,9.36 µM (inactive)
16,O=S(=O)(Nc1cccc2ncccc12)c1cccs1,6.36 µM (inactive)
17,Cc1ccc(C)c(N2CCN(C(=O)c3ccc(CS(=O)(=O)c4ccccc4C)o3)CC2)c1,14.2 µM (inactive)
18,Cc1ccc(C)c(-n2nnnc2Sc2nnnn2-c2ccccc2)c1,5.87 µM (inactive)
19,COc1ccccc1-c1nnc2sc(-c3ccc(N(C)C)cc3)nn12,0.0343 µM
20,COc1ccc(-c2nnc(NC(=O)c3ccccc3C)o2)cc1,> 40 µM (inactive)
21,CC(=O)CC1OC(=O)C(Br)=C1NCc1ccccc1 (centres undefined),3.91 µM
